Data on one compound can be found in ChEMBL document CHEMBL4184274 (Bioorg Med Chem Lett, 2018).

Broadly, the AUC is the area under the concentration-time curve, a measure of exposure.

This data set can be described thus: in vivo. The note with it: rat, 5 mg/kg.

The compound `CCN1CCN(Cc2ccc(Nc3ncc(F)c(-c4cc(F)c5nc(C)n(C(C)C)c5c4)n3)nc2)CC1` [ABEMACICLIB] showed an AUC of 3280 ng·h/mL.
